{"source": "ChEMBL document CHEMBL3244087", "about": "“Ergoline congeners as potential inhibitors of prolactin release. 3. Derivatives of 3-phenylpiperidine” (1977)"}
{"test_system": "Rattus norvegicus", "assay": "Inhibition of prolactin release in reserpinized rat assessed as reduction in serum prolactin level at 2 mg, ip after 1 hr post dose by radioimmunoassay relative to untreated control", "assay_type": "functional", "units": {"inhibition (INH)": "%"}}
{"compound": "COc1cc(C2CC(CC#N)CN(C)C2)c(OC)cc1C", "note": "(stereo unspecified)", "inhibition (INH)": -13}
{"compound": "CCOC(=O)C1=CC(c2cc(OC)c(C)cc2OC)CN(C)C1", "note": "(stereo unspecified)", "inhibition (INH)": -5}
{"compound": "CCOC(=O)C1CC(c2cc(OC)c(C)cc2OC)CN(C)C1", "note": "(stereo unspecified)", "inhibition (INH)": 5}
{"compound": "COc1cc(C2CC(CO)CN(C)C2)c(OC)cc1C", "note": "(stereo unspecified)", "inhibition (INH)": -2}
{"test_system": "Rattus norvegicus", "assay": "Inhibition of prolactin release in reserpinized rat assessed as reduction in serum prolactin level at 1 mg, ip after 1 hr post dose by radioimmunoassay relative to untreated control", "assay_type": "functional", "units": {"inhibition (INH)": "%"}}
{"compound": "CCOC(=O)C1CN(C)CC(c2cc(OC)c(C)cc2OC)C1=O", "note": "(stereo unspecified)", "inhibition (INH)": 22}
{"compound": "CN1CCc2cccc3c2[C@H]1Cc1ccc(O)c(O)c1-3", "note": "[APOMORPHINE]", "inhibition (INH)": 29}
